Results as given in patent US20240276935A1, “METHODS FOR ENHANCING DISEASE RESISTANCE AND INCREASING BIOMASS YIELD AND SECONDARY METABOLITE QUANTITIES IN CANNABIS SATIVA UTILIZING PLANT DEFENSE-RESPONSE ELICITORS” (priority 2023, published 2024).

Key:
[1] = system: C. sativa; set-up: species or system Cannabis sativa; conditions: in vivo
[2] = system: medical cannabis variety; conditions: 0.1 mM, foliar application; cited from earlier work
[3] = system: Fusarium sp.; experiment: Protective effect on rooting clones of C. sativa against Fusarium sp. (Table 1); format: in vivo; conditions: for Total Alive: cultivar III clones alive; for Total Alive / Total Dead: total of 30 replicate clones per elicitor treatment; for Total Dead: cultivar III clones dead; for Mean Survival: rooting clones of cultivar III, sprayed daily ~2 ml solution/clone, inoculated with Fusarium culture (~10^3 Cfu/ml), survival one week later, three repeats of 10 clones
Method: Cultivar III was shown from the data in FIG. 1B to be most susceptible to mold pathogens. Thus, 10 clones of cultivar III were selected to be treated with formulations containing bacterial/fungal PAMP elicitor compounds (as listed in Table 1) formulated in water. Treatments were performed by spraying the clones daily with ˜2 ml solution/clone, starting one week after cutting. Plants were inoculated two weeks after cutting (one week after treatment application) by applying 10 ml Fusarium culture (˜10^3 Cfu/ml) to the water tray. After one hour, clones were removed and placed in clean water trays. Survival was assessed one week later upon reaching the vegetative growth phase. The experiment was repeated three times for a total of 30 replicate clones per elicitor treatment.

[4] = system: cannabis sativa; conditions: cited from earlier work

SMILES | Yield (g/plant), Cultivar I [1] | Yield (g/plant), Cultivar II [1] | Yield (g/plant), Cultivar III [1] | increase of CBDA content in inflorescences [2] | Total Alive [3] | Total Dead [3] | Mean Survival [3] | A9-THC in extract ([4]; 1 M of SA (highest)) | CBD in extract ([4]; 1 M of SA (highest)) | TPC, TFC, TCC, Chl a, Chl b, and antioxidant capacity ([4]; 1 M treatment, lowest in control plants)
COc1cc(/C=C/CO)ccc1O [Coniferyl Alcohol] | 13.6 ± 2.9 g/plant | 12.8 ± 1.3 g/plant | 12.4 ± 1.8 g/plant | – | – | – | – | – | – | –
O=C(O)[C@H]1OC(O)[C@H](O)[C@@H](O)[C@H]1O (stereo partly shown) [D Galactoronic Acid] | 13.5 ± 1.8 g/plant | 11.5 ± 2.1 g/plant | 10.2 ± 1.8 g/plant | – | – | – | – | – | – | –
CC/C=C\CC1C(=O)CCC1CC(=O)OC (stereo not shown) [MeJA, methyl jasmonate] | – | – | – | 15.6% | – | – | – | – | – | –
CC(=O)N[C@H]1C(O)O[C@H](CO)[C@@H](O)[C@@H]1O (stereo partly drawn) [N-Acetyl-D-Glucosamine (4), N-Acetyl-D-Glucosamine] | 11.6 ± 1.7 g/plant | 10.7 ± 1.9 g/plant | 9.2 ± 0.7 g/plant | – | 21 | 9 | 70.0% | – | – | –
CC(=O)N[C@H]1C(O)O[C@H](CO)[C@@H](O)[C@@H]1O[C@H](C)C(=O)O (stereo partly shown) [N-Acetylmuramic Acid] | 13.4 ± 2.1 g/plant | 11.5 ± 2^ g/plant | 11.5 ± 1.6 g/plant | – | 21 | 9 | 70.0% | – | – | –
OC/C=C/c1ccc(O)cc1 [Paracoumaryl Alcohol] | 14.7 ± 2.5 g/plant | 9.2 ± 1 g/plant | 11.9 ± 2.9 g/plant | – | – | – | – | – | – | –
O=C(O)c1ccccc1O [SA, salicylic acid] | – | – | – | – | – | – | – | 22.84% | 37.81% | highest
COc1cc(/C=C/CO)cc(OC)c1O [Sinapyl Alcohol (Syringil monomer), Sinapyl Alcohol] | 16.4 ± 1.2 g/plant | 12.9 ± 2.1 g/plant | 13.5 ± 2.6 g/plant | – | – | – | – | – | – | –
